Reference: US5627185A, “Acyclovir derivatives as antiviral agents” (priority 1995, dated 1997)
Several values for one entry are separate records, joined by “and”; a condition that tells them apart may be missing. Identical values can stand only once. Like-named read-outs stand apart in the source and are kept apart here.

Legend:
in vitro = format: cell-based; conditions: human, cem cells
Experimental: The toxic effect on non-infected CEMs is assessed by a […] reaction based on the capacity of living cells to reduce 3-(4,5 dimethylthiazol-2-yl)-2,5 diphenyltetrazolium bromide into formazan after incubation for five days in the presence of various concentrations of the compounds. The results are expressed as the lowest concentration of compound which results in at least 50% inhibition of the formation of formazan (CD50).
(§1) 2. Anti-HIV activity on CEM TK- cells of Bis(S-acyl-2-thioethyl) phosphotriesters derivatives of acyclovir, as compared with those of the parent nucleoside and of AZT are shown in Table 2.

[1] = test system: Human Immunodeficiency virus (HIV-1, LAI isolate) replication in CEM TK- cells; assay: Anti-HIV activity on CEM TK- cells; format: cell-based; conditions: Human immunodeficiency virus 1, CEM-TK(-), read-out: EC50 (anti-HIV)
Experimental: The experimental procedure used for evaluation of activities against Human Immunodeficiency virus (HIV) is as follows:
HIV-1 replication (LAI isolate) in CEM cells are measured by assaying for […] (RTase) in the culture supernatant after infection for five days. This activity reflects the presence of the virus released by the cells. After absorption of the virus, the test compounds are added at various concentrations in the culture medium. Antiviral activity is expressed as the lowest concentration of compound which reduces the vital production by at least 50% (ED50)
as §1
In Table 2, EC50 represents the molar concentration which produces a 50% inhibition of HIV replication. Significant inhibition is shown.

[2] = test system: Herpes simplex virus type 1 (HSV-1) in MRC-5 cells; assay: Anti-HSV activity on MRC-5 cells, HSV-1; format: cell-based; conditions: Human alphaherpesvirus 1, MRC5, 50% inhibition of HSV-1 replication
Description: (§2) The experimental procedure used for evaluation of activities against Herpes simplex virus type 1 (HSV-1) is the as described by Genu-Dellac et al. in Nucleosides and Nucleotides, 10, 1345, (1991).
(§3) 3. Anti HSV activity on MRC-5 cells of Bis(S-acyl-2thioethyl)phosphotriesters derivatives of acyclovir is compared to that of Acyclovir in Table 3.
(§4) EC50 represents the molar concentration which produces a 50% inhibition of HSV-1 replication. Significant activity is shown.

Hepatitis B virus (HBV) = conditions: background; cited from earlier work
[3] = test system: Hepatitis B virus (HBV) replication, HBV virion, in transfected HepG2 (2.2.15) cells; assay: Anti-HBV activity on transfected HepG2 (2.2.15) cells (HBV virion); format: cell-based; conditions: for EC50: 50% inhibition of HBV replication; for EC90: 90% inhibition of HBV replication; for SI: SI = CC50/EC90
Description: (§5) The experimental procedure used for evaluation of activity against Hepatitis B virus is as previously described by Korba and Milman in Antiviral Res. […].
(§6) 1. Anti-HBV activity on transfected HepG2 (2.2.15) cells of Bis(S-acyl-2-thioethyl)phosphotriester derivatives of Acyclovir, (compound 9 of Figure I), as compared with those of the parent nucleoside and of 2',3'-dideoxyguanosine (ddG) and 2',3'-dideoxycytidine (ddC) are shown in Table 1.
(§7) In Table 1, EC90 and EC50 represent the molar concentrations which provide respectively a 90% and a 50% inhibition of HBV replication. CC50 represents the molar concentration which reduces the viability of non-infected cells by 50%.

[4] = test system: Human Immunodeficiency virus (HIV); conditions: background; cited from earlier work
Epstein-Barr virus = conditions: background; thymidine kinase activity reduced or missing; cited from earlier work
Cytomegalovirus = conditions: background; thymidine kinase activity reduced or missing; cited from earlier work
[5] = Viability of non-infected cells (CC50, Table 1); format: cell-based; conditions: human, hepg2 2.2.15 cells, reduces viability of non-infected cells by 50%
Description: as §5, §6, §7

[6] = test system: Herpes Simplex virus (HSV); conditions: background; due to selective monophosphorylation by HSV thymidine kinase; cited from earlier work
HSV-1 TK- in MRC-5 cells = assay: Anti-HSV activity on MRC-5 cells, HSV-1 TK-; format: cell-based, Herpes simplex virus type 1 TK-; conditions: Human alphaherpesvirus 1, MRC5, read-out: HSV-1 TK- EC50
Description: as §2, §3, §4

HepG2 (2.2.15) cells = assay: Viability of non-infected cells (CC50, Table 1); format: cell-based; conditions: reduces viability of non-infected cells by 50%
Description: as §5, §6, §7

[7] = Hepatitis B virus, HepG2 2.2.15, read-out: HBV virion EC50, transfected HepG2 (2.2.15) cells
[8] = Hepatitis B virus, HepG2 2.2.15, transfected HepG2 (2.2.15) cells
[9] = Hepatitis B virus, HepG2 2.2.15, transfected HepG2 (2.2.15) cells, read-out: HBV virion EC50

With `Cc1cn([C@H]2C[C@H](N=[N+]=[N-])[C@@H](CO)O2)c(=O)[nH]c1=O` [AZT] the CC50 at 120 h (in vitro) was > 100 µM, the cytotoxicity at 120 h, 100 µM (in vitro) was 5% and the EC50 [1] was > 100 µM.
In the case of `Nc1nc2c(ncn2COCCO)c(=O)[nH]1` [Acyclovir, acyclovir], the EC50 [2] is given as 0.63 µM, the “activity against HBV (in words)” value (Hepatitis B virus (HBV)) is given as “no activity” and the CC50 at 120 h (in vitro) is given as > 100 µM. The cytotoxicity at 120 h, 100 µM (in vitro) was 0%, the EC50 [1] was > 100 µM and the EC50 [3, 7] was 111 ± 15 µM. The EC90 [3, 8] was > 100 µM, the “activity against HIV (in words)” value [4] was “no activity” and the “activity against Epstein-Barr virus (in words)” value (Epstein-Barr virus) was “poorly active”. For the same compound, the “activity against Cytomegalovirus (in words)” value (Cytomegalovirus) was “poorly active”, the CC50 [5] was 631 ± 40 µM and the “anti-herpetic activity (in words)” value [6] was “anti-herpetic activity”. For the same compound, the EC50 (HSV-1 TK- in MRC-5 cells) was > 100 µM.
For `CC(=O)SCCOP(=O)(OCCOCn1cnc2c(=O)[nH]c(N)nc21)OCCSC(C)=O` [Bis(SATE)ACVMP, O-[1-(Methyl-[9-guanin-yl])-1-hydroxyethyl-2-yl]-O',O"-bis(S-acetyl-2-thioethyl) phosphate], the EC50 [2] was 1.25 µM, the CC50 at 120 h (in vitro) was > 100 µM and the cytotoxicity at 120 h, 100 µM (in vitro) was 0%. The EC50 [1] was 77 µM, the EC50 [3, 9] was 0.7 ± 0.1 µM and the EC90 [3, 8] was 5.1 ± 1 µM. The SI [3] was 194, the CC50 [5] was 987 ± 99 µM and the EC50 (HSV-1 TK- in MRC-5 cells) was 100 µM.
With `CC(C)(C)C(=O)SCCOP(=O)(OCCOCn1cnc2c(=O)[nH]c(N)nc21)OCCSC(=O)C(C)(C)C` [Bis(SPTE)ACVMP, O-[1-(Methyl-[9-guanin-yl]) -1-hydroxyethyl-2-yl]-O',O"-bis(S-pivaloyl-2-thioethyl) phosphate] the EC50 [2] was 2.5 µM, the CC50 at 120 h (in vitro) was > 10 µM and the cytotoxicity at 120 h, 10 µM (in vitro) was 26%. The EC50 [1] was 3.6 µM, the EC50 [3, 9] was 0.2 ± 0.04 µM and the EC90 [3, 8] was 7.1 ± 0.8 µM. For the same compound, the SI [3] was 224, the CC50 [5] was 1590 ± 131 µM and the EC50 (HSV-1 TK- in MRC-5 cells) was 10 µM.
For `Nc1ccn([C@H]2CC[C@@H](CO)O2)c(=O)n1` [ddC, 2',3'-dideoxycytidine], the EC50 [3, 7] was 1.3 ± 0.2 µM, the SI [3] was 20 and 30 and the EC50 ([3]; transfected HepG2 (2.2.15) cells, read-out: HBV virion EC50) was 2.2 ± 0.3 µM. For the same compound, the CC50 [5] was 219 ± 19 µM and the CC50 (HepG2 (2.2.15) cells) was 218 ± 19 µM.
